Where two headings read alike, the source gives them in different places.
Key:
HCT-15 cell lines = assay: MTT cytotoxicity assay, HCT-15; format: cell-based, human; details: for IC50 / inhibition at 50 µM: Homo sapiens; for IC50: read-out: IC50 HCT-15; for inhibition at 50 µM: read-out: Inhibition rate (%) HCT-15
Method: (§1) After treatment with target compounds at the different concentrations, MTT was added and the cells were incubated for another 4 h. The IC50 values of the selected compounds were evaluated by the same method. The cells were treated with compounds at different concentrations. The OD values were detected using a microplate reader at 570 nm.

HCC1937 cell lines = assay: MTT cytotoxicity assay, HCC1937; format: cell-based, human; details: for IC50 / inhibition at 50 µM: Homo sapiens; for IC50: read-out: IC50 HCC1937; for inhibition at 50 µM: read-out: Inhibition rate (%) HCC1937
Method: as §1

[1] = HCT-15, 72 h (3-Days) drug exposure, MTT
[2] = HCC1937, 72 h (3-Days) drug exposure, MTT

Compound | IC50 (HCT-15 cell lines; [1]) [µM] | melting point [°C] | IC50 (HCC1937 cell lines; [2]) [µM] | further results
Cc1ccccc1NC(=O)N1CCN(Cc2nc3ccccc3c(=O)[nH]2)CC1 [A10, 4-((4-oxo-3,4-dihydroquinazolin-2-yl)methyl)-N-(o-tolyl)piperazine-1-carboxamide] | 15.9 ± 0.85 | 199.9 to 201.6 | 14.7 ± 1.03 | –
COc1ccccc1NC(=O)N1CCN(Cc2nc3ccccc3c(=O)[nH]2)CC1 [A16, N-(2-methoxyphenyl)-4-((4-oxo-3,4-dihydroquinazolin-2-yl)methyl)piperazine-1-carboxamide] | 30.7 ± 2.13 | 188.5 to 190.7 | > 50 | –
Cc1ccc(Cl)cc1NC(=O)N1CCN(Cc2nc3ccccc3c(=O)[nH]2)CC1 [A32, N-(5-chloro-2-methylphenyl)-4-((4-oxo-3,4-dihydroquinazolin-2-yl)methyl)piperazine-1-carboxamide] | 10.9 ± 0.71 | 203.1 to 204.7 | 11.3 ± 0.73 | –
O=c1[nH]c(=O)n([C@H]2C[C@H](O)[C@@H](CO)O2)cc1/C=C/Br [compound 33] | – | – | – | Inhibition rate (%) HCT-15 (HCT-15 cell lines; 50 μM, 72 h, MTT): 28.5%; Inhibition rate (%) HCC1937 (HCC1937 cell lines; 50 μM, 72 h, MTT): 17.3%
Cc1ccc(NC(=O)N2CCN(Cc3nc4ccccc4c(=O)[nH]3)CC2)c(F)c1 [A22, N-(2-fluoro-4-methylphenyl)-4-((4-oxo-3,4-dihydroquinazolin-2-yl)methyl)piperazine-1-carboxamide] | 21.7 ± 1.16 | 198.4 to 200.7 | > 50 | –
O=C(Nc1ccccc1C(F)(F)F)N1CCN(Cc2nc3ccccc3c(=O)[nH]2)CC1 [A13, 4-((4-oxo-3,4-dihydroquinazolin-2-yl)methyl)-N-(2-(trifluoromethyl)phenyl) piperazine-1-carboxamide] | 20.2 ± 0.78 | 200.1 to 201.2 | > 50 | –
Cc1ccc(Cl)cc1NC(=O)N1C2CC1CN(Cc1nc3ccc(F)cc3c(=O)[nH]1)C2 [C4, N-(5-chloro-2-methylphenyl)-3-((6-fluoro-4-oxo-3,4-dihydroquinazolin-2-yl)methyl)-3,6-diazabicyclo[3.1.1]heptane-6-carboxamide] | – | 192.1 to 193.5 | – | IC50 (HCT-15 cell lines; HCT-15, 72 h): 9.84 ± 0.63 µM; IC50 (HCC1937 cell lines; HCC1937, 72 h): 8.49 ± 0.71 µM
Cc1cc(C)cc(NC(=O)N2CCN(Cc3nc4ccccc4c(=O)[nH]3)CC2)c1 [A38, N-(3,5-dimethylphenyl)-4-((4-oxo-3,4-dihydroquinazolin-2-yl)methyl)piperazine-1-carboxamide] | 18 ± 0.88 | 201.5 to 203.3 | 17.9 ± 1.32 | –
Cc1ccc(Cl)cc1NC(=O)N1C2CC1CN(Cc1nc3cc(F)c(F)cc3c(=O)[nH]1)C2 [C5, N-(5-chloro-2-methylphenyl)-3-((6,7-difluoro-4-oxo-3,4-dihydroquinazolin-2-yl)methyl)-3,6-diazabicyclo[3.1.1]heptane-6-carboxamide] | – | 194.4 to 195.8 | – | IC50 (HCT-15 cell lines; HCT-15, 72 h): 29.6 ± 2.16 µM; IC50 (HCC1937 cell lines; HCC1937, 72 h): 55 ± 4.28 µM
O=C(Nc1cccc(Cl)c1)N1CCN(Cc2nc3ccccc3c(=O)[nH]2)CC1 [A5, N-(3-chlorophenyl)-4-((4-oxo-3,4-dihydroquinazolin-2-yl)methyl)piperazine-1-carboxamide] | 19.1 ± 0.79 | 193.3 to 195.2 | 25.9 ± 0.96 | –
O=C(Nc1ccccc1Cl)N1CCN(Cc2nc3ccccc3c(=O)[nH]2)CC1 [A4, N-(2-chlorophenyl)-4-((4-oxo-3,4-dihydroquinazolin-2-yl)methyl)piperazine-1-carboxamide] | 19.1 ± 1.12 | 197.9 to 199.6 | 14.7 ± 1.67 | –
O=C(Nc1cc(F)ccc1F)N1CCN(Cc2nc3ccccc3c(=O)[nH]2)CC1 [A20, N-(2,5-difluorophenyl)-4-((4-oxo-3,4-dihydroquinazolin-2-yl)methyl)piperazine-1-carboxamide] | 33.1 ± 2.16 | 202.1 to 204.2 | 41.7 ± 1.89 | –
Cc1cccc(C)c1NC(=O)N1CCN(Cc2nc3ccccc3c(=O)[nH]2)CC1 [A33, N-(2,6-dimethylphenyl)-4-((4-oxo-3,4-dihydroquinazolin-2-yl)methyl)piperazine-1-carboxamide] | 35 ± 2.28 | 200.3 to 201.9 | 39.6 ± 1.35 | –
Cc1ccc(F)c(NC(=O)N2CCN(Cc3nc4ccccc4c(=O)[nH]3)CC2)c1 [A23, N-(2-fluoro-5-methylphenyl)-4-((4-oxo-3,4-dihydroquinazolin-2-yl)methyl)piperazine-1-carboxamide] | 26 ± 1.67 | 199.5 to 201.1 | 44.2 ± 3.47 | –
O=C(Nc1cc(Cl)cc(Cl)c1)N1CCN(Cc2nc3ccccc3c(=O)[nH]2)CC1 [A35, N-(3,5-dichlorophenyl)-4-((4-oxo-3,4-dihydroquinazolin-2-yl)methyl)piperazine-1-carboxamide] | 21.2 ± 0.89 | 207.5 to 209.5 | > 50 | –
Cc1ccc(Cl)cc1NC(=O)N1C[C@H]2CC[C@@H](C1)N2Cc1nc2ccccc2c(=O)[nH]1 [B5, (1R,5S)-N-(5-chloro-2-methylphenyl)-8-((4-oxo-3,4-dihydroquinazolin-2-yl)methyl)-3,8-diazabicyclo[3.2.1]octane-3-carboxamide] | – | 189.5 to 191.7 | – | IC50 (HCT-15 cell lines; HCT-15, 72 h): 11 ± 2.4 µM; IC50 (HCC1937 cell lines; HCC1937, 72 h): 9.61 ± 1.35 µM
Cc1ccc(Cl)cc1NC(=O)N1CCN(Cc2nc3ccccc3c(=O)[nH]2)CC1C (stereo not shown) [B2, N-(5-chloro-2-methylphenyl)-2-methyl-4-((4-oxo-3,4-dihydroquinazolin-2-yl)methyl)piperazine-1-carboxamide] | 6.37 ± 2.83 | 189.5 to 190.8 | 5.89 ± 0.5 | –

Compound | IC50 (HCT-15 cell lines; [1]) [µM] | melting point [°C] | IC50 (HCC1937 cell lines; [2]) [µM] | further results
O=C(Nc1ccccc1F)N1CCN(Cc2nc3ccccc3c(=O)[nH]2)CC1 [A1, N-(2-fluorophenyl)-4-((4-oxo-3,4-dihydroquinazolin-2-yl)methyl)piperazine-1-carboxamide] | 18.4 ± 0.91 | 192.5 to 194.2 | 16.6 ± 1.12 | –
Cc1cccc(NC(=O)N2CCN(Cc3nc4ccccc4c(=O)[nH]3)CC2)c1 [A11, 4-((4-oxo-3,4-dihydroquinazolin-2-yl)methyl)-N-(m-tolyl)piperazine-1-carboxamide] | 25.6 ± 1.17 | 197.8 to 200.2 | > 50 | –
O=C(Nc1ccc(F)cc1)N1CCN(Cc2nc3ccccc3c(=O)[nH]2)CC1 [A3, N-(4-fluorophenyl)-4-((4-oxo-3,4-dihydroquinazolin-2-yl)methyl)piperazine-1-carboxamide] | > 50 | 196.5 to 197.8 | > 50 | –
O=C(Nc1ccccc1Br)N1CCN(Cc2nc3ccccc3c(=O)[nH]2)CC1 [A7, N-(2-bromophenyl)-4-((4-oxo-3,4-dihydroquinazolin-2-yl)methyl)piperazine-1-carboxamide] | 29.6 ± 1.37 | 195.1 to 196.7 | 40.3 ± 3.32 | –
Cc1ccc(Cl)cc1NC(=O)N1C2CC1CN(Cc1nc3cc(F)ccc3c(=O)[nH]1)C2 [C1, N-(5-chloro-2-methylphenyl)-3-((7-fluoro-4-oxo-3,4-dihydroquinazolin-2-yl)methyl)-3,6-diazabicyclo[3.1.1]heptane-6-carboxamide] | – | 193.2 to 195.1 | – | IC50 (HCT-15 cell lines; HCT-15, 72 h): 24.1 ± 2.25 µM; IC50 (HCC1937 cell lines; HCC1937, 72 h): 9.22 ± 1.19 µM
Cc1ccc(F)cc1NC(=O)N1CCN(Cc2nc3ccccc3c(=O)[nH]2)CC1 [A30, N-(5-fluoro-2-methylphenyl)-4-((4-oxo-3,4-dihydroquinazolin-2-yl)methyl)piperazine-1-carboxamide] | 18.3 ± 0.44 | 201.1 to 202.8 | 39.5 ± 1.84 | –
Cc1ccc(Cl)cc1NC(=O)N1C2CCC1CN(Cc1nc3ccccc3c(=O)[nH]1)C2 [B6, N-(5-chloro-2-methylphenyl)-3-((4-oxo-3,4-dihydroquinazolin-2-yl)methyl)-3,8-diazabicyclo[3.2.1]octane-8-carboxamide] | – | 192.3 to 193.6 | – | IC50 (HCT-15 cell lines; HCT-15, 72 h): 7.27 ± 1.28 µM; IC50 (HCC1937 cell lines; HCC1937, 72 h): 7.52 ± 1.37 µM
Cc1ccc(NC(=O)N2CCN(Cc3nc4ccccc4c(=O)[nH]3)CC2)cc1C [A37, N-(3,4-dimethylphenyl)-4-((4-oxo-3,4-dihydroquinazolin-2-yl)methyl)piperazine-1-carboxamide] | 22.5 ± 1.49 | 194.4 to 196.1 | 46.4 ± 2.96 | –
O=C(Nc1cc(F)cc(F)c1)N1CCN(Cc2nc3ccccc3c(=O)[nH]2)CC1 [A34, N-(3,5-difluorophenyl)-4-((4-oxo-3,4-dihydroquinazolin-2-yl)methyl)piperazine-1-carboxamide] | 47.2 ± 3.35 | 199.8 to 200.2 | > 50 | –
COC(=O)c1ccccc1N [compound 1] | – | – | – | inhibition at 50 µM (HCT-15 cell lines; HCT-15, 72 h): 13.7%; inhibition at 50 µM (HCC1937 cell lines; HCC1937, 72 h): 12.7%
O=c1[nH]c(CN2CCNCC2)nc2ccccc12 [compound 4] | – | – | – | inhibition at 50 µM (HCT-15 cell lines; HCT-15, 50 μM, 72 h, MTT): 48.9%; inhibition at 50 µM (HCC1937 cell lines; HCC1937, 50 μM, 72 h, MTT): 16.5%
C[C@H](CCC(=O)O)[C@H]1CC[C@H]2[C@@H]3C(=O)C[C@@H]4CC(=O)CC[C@]4(C)[C@H]3CC(=O)[C@]12C [compound 35] | – | – | – | Inhibition rate (%) HCT-15 (HCT-15 cell lines; 50 μM, 72 h, MTT): 12.3%; Inhibition rate (%) HCC1937 (HCC1937 cell lines; 50 μM, 72 h, MTT): 21.4%
Cc1ccc(-c2cc(C(F)(F)F)nn2-c2ccc(S(N)(=O)=O)cc2)cc1 [compound 54] | – | – | – | Inhibition rate (%) HCT-15 (HCT-15 cell lines; 50 μM, 72 h, MTT): 33.5%; Inhibition rate (%) HCC1937 (HCC1937 cell lines; 50 μM, 72 h, MTT): 33.1%
Oc1ccc(N2CCNCC2)cc1 [compound 23] | – | – | – | Inhibition rate (%) HCT-15 (HCT-15 cell lines; 50 μM, 72 h, MTT): 41.9%; Inhibition rate (%) HCC1937 (HCC1937 cell lines; 50 μM, 72 h, MTT): 9.2%
CC(C)(C)OC(=O)N1CCN(Cc2nc3ccccc3c(=O)[nH]2)CC1 [compound 3] | – | – | – | inhibition at 50 µM (HCT-15 cell lines; HCT-15, 50 μM, 72 h, MTT): 52.3%; inhibition at 50 µM (HCC1937 cell lines; HCC1937, 50 μM, 72 h, MTT): 19.5%
O=c1[nH]c(CCl)nc2ccccc12 [compound 2] | – | – | – | inhibition at 50 µM (HCT-15 cell lines; HCT-15, 50 μM, 72 h, MTT): 31.9%; inhibition at 50 µM (HCC1937 cell lines; HCC1937, 50 μM, 72 h, MTT): 10.3%

From PMC10974284, “Discovery of Novel 4-Hydroxyquinazoline Derivatives: In Silico, In Vivo and In Vitro Studies Using Primary PARPi-Resistant Cell Lines” (Molecules, 2024)
